The values below come from publication PMC2361662 (British Journal of Cancer, 2005).

Experiment [1] deals with EGFRvIII-expressing cells. Details: method as in Montgomery, 2002. To be noted: ref Montgomery, 2002; cited from earlier work.
In the next experiment the test system is LN229/EGFR cells. Details: method as in Li et al (2003). As to conditions: ref Li et al (2003); cited from earlier work.
A further experiment has as its system ERK. Kind of experiment: ERK phosphorylation, immunoblot. The class given is cell-based. How it is done:
(§1) For determination of phosphorylated proteins, 5 μg whole cell lysate from serum-starved cells was resolved by SDS–PAGE and electroblotted onto nitrocellulose membranes. After transfer and blocking in 5% nonfat milk, primary antibody staining was carried out by incubation overnight at 4°C, and secondary antibody staining was for 1 h at room temperature. The chemiluminescence detection method (ECL) was used for all Western blot experiments.
(§2) Extracellular regulated kinase-1 and -2 (ERK-2), phospholipase C γ (PLC-γ), protein kinase B (AKT) and the signal transducer and activator of transcription 3 (STAT3) are all essential downstream targets of EGFR and mediate many of its oncogenic effects.
(§3) Figure 3 (A) Phosphorylation of key signalling molecules upon EGF (10 nM for 10 min) stimulation in the four cell lines.
(In general: A western blot detects proteins with antibodies after separation by electrophoresis.)

The test system of another experiment is STAT3. As to the kind of experiment: STAT3 phosphorylation, immunoblot. The class given is cell-based. As to conditions: NR6M cells (EGFRvIII-expressing). How it is done: as §1, §2, §3

Structures are written as SMILES.

For the molecule `COc1cc2ncnc(Nc3cccc(Cl)c3)c2cc1OC` [AG1478], the “Concentration that stimulated colony formation” value in experiment [1] was 0.1 µM.
Take `COc1cc2ncnc(Nc3cccc(Br)c3)c2cc1OC` [PD153035]: in the experiment on LN229/EGFR cells, the “Concentration that stimulated proliferation” value is 0.05 µM.
For the molecule `COc1cc2ncnc(Nc3ccc(F)c(Cl)c3)c2cc1OCCCN1CCOCC1` [gefitinib], the “Effect on ERK phosphorylation” value in the experiment on ERK (NR6M cells, 0.1 μM gefitinib, after 48 and 72 h) is “increased”. The “Response of ERK phosphorylations to gefitinib” value in the experiment on ERK (NR6W cells, up to the highest concentrations (2 μM)) is reported as “unresponsive”. Besides, the “Effect on background level of STAT3 phosphorylation” value in the experiment with STAT3 is listed as “no effect”.
